# Data published in US20240025844A1, “PHENYL UREA ANALOGS AS FORMYL PEPTIDE RECEPTOR 1 (FPR1) SELECTIVE AGONISTS” (Allergan, Inc., priority 2018, published 2024).
# pEC50: −log10 of the molar value.
# Key:
# [1] = molecular target: T1, FPR2 (Homo sapiens, UniProt P25090); assay: Compound-induced calcium activity on FLIPR Tetra in Gα16 cells stably expressing FPR2; type: cell-based; conditions: for FPR2 Ga16-HEK293 (Rel. eff.): relative efficacy, value in brackets, table head Ga16-HEK293, text CHO-Gα16 cells; for pEC50: table head Ga16-HEK293, text CHO-Gα16 cells stably expressing FPR2, tested 0.61 to 10,000 nM
# T1 construct: expressed in transfected cells; host or cells: CHO-Gα16 cells
# T1 sequence (P25090 1-351): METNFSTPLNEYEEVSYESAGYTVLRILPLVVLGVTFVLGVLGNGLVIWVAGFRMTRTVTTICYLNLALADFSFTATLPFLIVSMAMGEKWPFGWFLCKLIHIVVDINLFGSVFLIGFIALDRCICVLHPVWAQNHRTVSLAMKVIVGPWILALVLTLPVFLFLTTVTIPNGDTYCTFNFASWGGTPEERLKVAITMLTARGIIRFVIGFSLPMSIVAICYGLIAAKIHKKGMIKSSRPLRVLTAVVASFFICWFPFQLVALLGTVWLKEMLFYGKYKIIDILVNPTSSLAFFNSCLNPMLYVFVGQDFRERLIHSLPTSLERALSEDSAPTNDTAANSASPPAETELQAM
# Protocol: (§1) CHO-Gα16 cells stably expressing FPR1 or FPR2 were cultured in (F12, 10% FBS, 1% PSA, 400 μg/ml geneticin and 50 μg/ml hygromycin). In general, the day before the experiment, 18,000 cells/well were plated in a 384-well clear bottom poly-D-lysine coated plate. The following day the screening compound-induced calcium activity was assayed on the FLIPR^Tetra. The drug plates were prepared in 384-well microplates using the EP3 and the MultiPROBE robotic liquid handling systems. Compounds were tested at concentrations ranging from 0.61 to 10,000 nM. Results are expressed as EC50 (nM) and efficacy values.
# [2] = molecular target: T2, FPR1 (Homo sapiens, UniProt P21462); assay: Compound-induced calcium activity on FLIPR Tetra in Gα16 cells stably expressing FPR1; type: cell-based; conditions: for FPR1 Ga16-HEK293 (Rel. eff.): relative efficacy, value in brackets, table head Ga16-HEK293, text CHO-Gα16 cells; for pEC50: table head Ga16-HEK293, text CHO-Gα16 cells stably expressing FPR1, tested 0.61 to 10,000 nM
# T2 construct: expressed in transfected cells; host or cells: CHO-Gα16 cells
# T2 sequence (P21462 1-350): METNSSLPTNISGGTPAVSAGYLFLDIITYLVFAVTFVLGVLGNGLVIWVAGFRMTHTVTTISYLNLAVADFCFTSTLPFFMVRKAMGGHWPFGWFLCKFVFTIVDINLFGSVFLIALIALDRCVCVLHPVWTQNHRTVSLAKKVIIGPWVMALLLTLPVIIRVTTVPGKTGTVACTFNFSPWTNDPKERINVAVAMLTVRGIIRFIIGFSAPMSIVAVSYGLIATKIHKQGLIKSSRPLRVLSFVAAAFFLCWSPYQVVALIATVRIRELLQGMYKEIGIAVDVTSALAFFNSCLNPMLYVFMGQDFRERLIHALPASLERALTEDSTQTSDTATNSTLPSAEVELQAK
# Protocol: as §1
FPR2 Ga16-HEK293 (Rel. eff.) [1],pEC50 [1],FPR1 Ga16-HEK293 (Rel. eff.) [2],pEC50 [2],Structure (SMILES)
0.91,6.65,1.00,9.24,"CC(C)C[C@H](NC(=O)CNC(=O)Nc1ccc(Br)cc1)C(=O)O [Compound 1, (S)-2-(2-(3-(4-bromophenyl)ureido)acetamido)-4-methylpentanoic acid]"
0.81,5.25,0.99,7.12,"CC(C)C[C@H](NC(=O)CCNC(=O)Nc1ccc(Br)cc1)C(=O)O [Compound 5, (S)-2-(3-(3-(4-bromophenyl)ureido)propanamido)-4-methylpentanoic acid]"
1.05,6.51,0.98,8.31,"CCC[C@H](NC(=O)CNC(=O)Nc1ccc(Br)cc1)C(=O)O [Compound 6, (S)-2-(2-(3-(4-bromophenyl)ureido)acetamido)pentanoic acid]"
1.07,6.45,0.97,7.83,"O=C(CNC(=O)Nc1ccc(Br)cc1)N[C@@H](Cc1ccccc1)C(=O)O [Compound 4, (S)-2-(2-(3-(4-bromophenyl)ureido)acetamido)-3-phenylpropanoic acid]"
